In ChEMBL document CHEMBL5226338, “Molecular hybrids: A five-year survey on structures of multiple targeted hybrids of protein kinase inhibitors for cancer therapy” (Eur J Med Chem, 2021):

Key:
[1] = Cytotoxicity against human U87 cells; type: functional, cell-based, U-87MG ATCC; conditions: U-87 MG
[2] = biological target: Vascular endothelial growth factor receptor 2 (Homo sapiens, UniProt P35968); test: Inhibition of VEGFR2 (unknown origin) using biotin-gastrin precursor (Tyr87) peptide as substrate incubated for 1 hr in presence of ATP by spectrophotometric analysis relative to sorafenib; conditions: concentration not given here
Vascular endothelial growth factor receptor 2, sequence (P35968 whole entry): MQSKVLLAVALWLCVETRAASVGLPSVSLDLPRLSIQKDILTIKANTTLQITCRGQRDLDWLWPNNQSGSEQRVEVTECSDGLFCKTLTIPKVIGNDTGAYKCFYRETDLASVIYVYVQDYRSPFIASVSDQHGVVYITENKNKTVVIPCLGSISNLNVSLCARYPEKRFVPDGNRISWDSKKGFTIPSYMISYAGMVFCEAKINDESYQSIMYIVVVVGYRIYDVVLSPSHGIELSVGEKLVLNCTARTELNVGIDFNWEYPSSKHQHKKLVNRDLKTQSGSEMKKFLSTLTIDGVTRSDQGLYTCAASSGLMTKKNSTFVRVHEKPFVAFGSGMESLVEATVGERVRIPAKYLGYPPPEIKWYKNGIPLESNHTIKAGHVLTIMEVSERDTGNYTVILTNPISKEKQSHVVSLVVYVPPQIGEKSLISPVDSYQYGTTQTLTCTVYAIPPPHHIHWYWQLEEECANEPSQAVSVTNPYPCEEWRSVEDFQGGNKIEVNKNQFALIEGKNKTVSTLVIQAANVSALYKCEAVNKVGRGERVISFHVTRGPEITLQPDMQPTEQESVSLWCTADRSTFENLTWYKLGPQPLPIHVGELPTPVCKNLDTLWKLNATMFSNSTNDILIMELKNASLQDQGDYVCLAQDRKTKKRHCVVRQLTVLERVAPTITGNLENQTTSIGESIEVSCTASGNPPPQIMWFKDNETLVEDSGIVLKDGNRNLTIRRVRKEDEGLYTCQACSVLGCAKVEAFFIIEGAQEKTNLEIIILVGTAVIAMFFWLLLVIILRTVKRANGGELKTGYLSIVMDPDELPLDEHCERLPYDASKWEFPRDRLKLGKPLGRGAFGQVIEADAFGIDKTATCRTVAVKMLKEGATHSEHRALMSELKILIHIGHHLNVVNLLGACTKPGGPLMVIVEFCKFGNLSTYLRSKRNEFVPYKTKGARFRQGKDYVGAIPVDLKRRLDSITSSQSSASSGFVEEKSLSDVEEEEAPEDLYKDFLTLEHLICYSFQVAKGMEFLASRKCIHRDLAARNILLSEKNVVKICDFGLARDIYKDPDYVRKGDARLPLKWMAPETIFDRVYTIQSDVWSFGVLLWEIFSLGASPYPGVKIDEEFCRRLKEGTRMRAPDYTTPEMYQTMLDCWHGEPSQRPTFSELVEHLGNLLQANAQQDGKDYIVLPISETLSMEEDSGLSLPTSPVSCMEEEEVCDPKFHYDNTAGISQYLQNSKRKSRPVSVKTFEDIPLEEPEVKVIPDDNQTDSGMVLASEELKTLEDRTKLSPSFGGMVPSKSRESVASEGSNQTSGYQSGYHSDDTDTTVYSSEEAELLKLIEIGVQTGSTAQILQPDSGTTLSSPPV

[3] = biological target: DNA topoisomerase 1 (Homo sapiens, UniProt P11387); test: Inhibition of human DNA topoisomerase 1 incubated for 2 hrs by ELISA
[4] = biological target: T1, Epidermal growth factor receptor (Homo sapiens, UniProt P00533); test: Inhibition of EGFR (unknown origin) using poly (Glu,Tyr) 4:1 as substrate incubated for 1 hr in presence of ATP by spectrophotometric analysis relative to sorafenib; conditions: concentration not given here
T1 sequence (P00533 whole entry): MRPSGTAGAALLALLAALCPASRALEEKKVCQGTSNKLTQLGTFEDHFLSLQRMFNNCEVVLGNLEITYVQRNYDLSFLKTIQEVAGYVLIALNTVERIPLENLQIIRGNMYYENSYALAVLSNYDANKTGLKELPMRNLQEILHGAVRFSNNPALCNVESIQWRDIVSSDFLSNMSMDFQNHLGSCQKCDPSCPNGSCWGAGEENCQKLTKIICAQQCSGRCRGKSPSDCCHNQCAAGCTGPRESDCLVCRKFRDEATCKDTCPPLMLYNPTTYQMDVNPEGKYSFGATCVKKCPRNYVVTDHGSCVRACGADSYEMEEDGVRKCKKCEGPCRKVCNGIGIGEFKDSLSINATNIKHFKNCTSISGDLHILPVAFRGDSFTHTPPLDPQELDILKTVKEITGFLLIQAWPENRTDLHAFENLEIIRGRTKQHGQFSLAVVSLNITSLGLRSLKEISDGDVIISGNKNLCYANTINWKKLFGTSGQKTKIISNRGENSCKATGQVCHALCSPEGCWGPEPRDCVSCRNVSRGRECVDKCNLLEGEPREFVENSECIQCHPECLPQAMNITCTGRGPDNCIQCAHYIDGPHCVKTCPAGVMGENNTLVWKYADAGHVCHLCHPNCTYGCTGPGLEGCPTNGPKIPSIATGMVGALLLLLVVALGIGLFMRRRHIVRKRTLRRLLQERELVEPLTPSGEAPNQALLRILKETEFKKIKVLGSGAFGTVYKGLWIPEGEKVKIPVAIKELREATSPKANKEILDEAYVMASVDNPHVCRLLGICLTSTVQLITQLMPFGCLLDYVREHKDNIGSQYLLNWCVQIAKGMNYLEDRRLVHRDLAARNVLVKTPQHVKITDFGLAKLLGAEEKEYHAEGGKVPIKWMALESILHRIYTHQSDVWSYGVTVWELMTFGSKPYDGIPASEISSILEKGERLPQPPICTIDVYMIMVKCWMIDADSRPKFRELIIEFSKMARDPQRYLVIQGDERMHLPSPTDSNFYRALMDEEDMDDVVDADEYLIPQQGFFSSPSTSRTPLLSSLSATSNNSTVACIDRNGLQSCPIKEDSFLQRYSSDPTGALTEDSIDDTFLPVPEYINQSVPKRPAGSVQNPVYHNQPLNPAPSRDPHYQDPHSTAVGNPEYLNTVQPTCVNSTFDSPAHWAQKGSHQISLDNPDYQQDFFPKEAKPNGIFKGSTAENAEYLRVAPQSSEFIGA

[5] = biological target: Histone deacetylase; test: Inhibition of HDAC in human HeLa cell nuclear extract using Boc-Lys (acetyl)-AMC as substrate preincubated for 15 mins followed by substrate addition and measured after 60 mins by fluorescence based analysis; type: subcellular, Nucleus
[6] = biological target: MAP kinase-interacting serine/threonine-protein kinase 1 (Homo sapiens) (UniProt Q9BUB5); test: Inhibition of MNK1 (unknown origin) at 1 uM incubated for 60 mins by HTRF assay relative to control
MAP kinase-interacting serine/threonine-protein kinase 1 (Homo sapiens), sequence (Q9BUB5 whole entry, looked up): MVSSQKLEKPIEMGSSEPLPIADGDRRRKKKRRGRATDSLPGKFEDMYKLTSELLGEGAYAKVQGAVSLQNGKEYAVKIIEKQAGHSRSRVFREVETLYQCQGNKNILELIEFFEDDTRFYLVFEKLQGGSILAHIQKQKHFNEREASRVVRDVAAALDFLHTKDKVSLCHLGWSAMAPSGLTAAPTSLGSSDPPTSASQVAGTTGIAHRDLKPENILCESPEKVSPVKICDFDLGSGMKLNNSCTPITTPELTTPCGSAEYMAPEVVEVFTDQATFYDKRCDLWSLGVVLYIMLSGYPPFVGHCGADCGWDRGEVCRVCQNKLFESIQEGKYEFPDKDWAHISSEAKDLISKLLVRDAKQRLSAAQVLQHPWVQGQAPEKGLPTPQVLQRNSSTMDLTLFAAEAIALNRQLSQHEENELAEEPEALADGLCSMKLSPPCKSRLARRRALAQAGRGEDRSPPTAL

[7] = biological target: MAP kinase-interacting serine/threonine-protein kinase 2 (Homo sapiens) (UniProt Q9HBH9); test: Inhibition of MNK2 (unknown origin) at 1 uM incubated for 60 mins by HTRF assay relative to control
[8] = biological target: T1, Epidermal growth factor receptor; test: Inhibition of EGFR (unknown origin) phosphorylation by ELISA
[9] = biological target: Tubulin beta; test: Inhibition of beta-tubulin polymerization (unknown origin) measured every 3 secs for 1 hr by spectrofluorometer; type: protein assay, Homo sapiens
[10] = test system: HepG2; test: Cytotoxicity against human HepG2 cells assessed as inhibition of cell growth incubated for 24 hrs by MTT assay; type: functional, cell-based; conditions: HepG2, 24 h
[11] = biological target: Tubulin; test: Inhibition of tubulin (unknown origin) polymerization; type: protein-complex assay, Homo sapiens
[12] = biological target: T1, Epidermal growth factor receptor; test: Inhibition of GST-fused EGFR (unknown origin) in presence of ATP by microplate reader analysis
[13] = biological target: Bcr/Abl fusion protein (Homo sapiens, UniProt P00519); test: Inhibition of BCR-Abl (unknown origin) incubated for 1 hr by ADP-glo assay; type: protein assay
[14] = biological target: T2, Histone deacetylase 1 (Homo sapiens, UniProt Q13547); test: Inhibition of full length human recombinant HDAC1 using AcLys-Tyr-Lys(e-acetyl)-AMC as substrate incubated for 24 hrs
T2 sequence (Q13547 whole entry): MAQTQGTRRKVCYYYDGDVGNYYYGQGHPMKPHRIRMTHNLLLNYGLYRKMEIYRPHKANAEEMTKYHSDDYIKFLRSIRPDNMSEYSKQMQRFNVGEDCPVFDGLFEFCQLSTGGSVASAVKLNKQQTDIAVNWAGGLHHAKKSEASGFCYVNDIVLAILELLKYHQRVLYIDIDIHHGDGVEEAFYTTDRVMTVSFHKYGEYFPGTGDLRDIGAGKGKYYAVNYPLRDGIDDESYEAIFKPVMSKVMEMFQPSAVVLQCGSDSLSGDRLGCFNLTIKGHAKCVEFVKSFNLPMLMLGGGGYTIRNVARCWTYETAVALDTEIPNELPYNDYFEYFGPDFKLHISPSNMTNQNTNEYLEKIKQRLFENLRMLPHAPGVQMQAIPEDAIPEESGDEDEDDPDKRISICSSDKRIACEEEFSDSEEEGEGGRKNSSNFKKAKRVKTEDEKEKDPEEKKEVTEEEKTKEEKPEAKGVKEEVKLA

[15] = biological target: T3, Protein deacetylase HDAC6 (Homo sapiens, UniProt Q9UBN7); test: Inhibition of HDAC6 (unknown origin)
T3 sequence (Q9UBN7 whole entry): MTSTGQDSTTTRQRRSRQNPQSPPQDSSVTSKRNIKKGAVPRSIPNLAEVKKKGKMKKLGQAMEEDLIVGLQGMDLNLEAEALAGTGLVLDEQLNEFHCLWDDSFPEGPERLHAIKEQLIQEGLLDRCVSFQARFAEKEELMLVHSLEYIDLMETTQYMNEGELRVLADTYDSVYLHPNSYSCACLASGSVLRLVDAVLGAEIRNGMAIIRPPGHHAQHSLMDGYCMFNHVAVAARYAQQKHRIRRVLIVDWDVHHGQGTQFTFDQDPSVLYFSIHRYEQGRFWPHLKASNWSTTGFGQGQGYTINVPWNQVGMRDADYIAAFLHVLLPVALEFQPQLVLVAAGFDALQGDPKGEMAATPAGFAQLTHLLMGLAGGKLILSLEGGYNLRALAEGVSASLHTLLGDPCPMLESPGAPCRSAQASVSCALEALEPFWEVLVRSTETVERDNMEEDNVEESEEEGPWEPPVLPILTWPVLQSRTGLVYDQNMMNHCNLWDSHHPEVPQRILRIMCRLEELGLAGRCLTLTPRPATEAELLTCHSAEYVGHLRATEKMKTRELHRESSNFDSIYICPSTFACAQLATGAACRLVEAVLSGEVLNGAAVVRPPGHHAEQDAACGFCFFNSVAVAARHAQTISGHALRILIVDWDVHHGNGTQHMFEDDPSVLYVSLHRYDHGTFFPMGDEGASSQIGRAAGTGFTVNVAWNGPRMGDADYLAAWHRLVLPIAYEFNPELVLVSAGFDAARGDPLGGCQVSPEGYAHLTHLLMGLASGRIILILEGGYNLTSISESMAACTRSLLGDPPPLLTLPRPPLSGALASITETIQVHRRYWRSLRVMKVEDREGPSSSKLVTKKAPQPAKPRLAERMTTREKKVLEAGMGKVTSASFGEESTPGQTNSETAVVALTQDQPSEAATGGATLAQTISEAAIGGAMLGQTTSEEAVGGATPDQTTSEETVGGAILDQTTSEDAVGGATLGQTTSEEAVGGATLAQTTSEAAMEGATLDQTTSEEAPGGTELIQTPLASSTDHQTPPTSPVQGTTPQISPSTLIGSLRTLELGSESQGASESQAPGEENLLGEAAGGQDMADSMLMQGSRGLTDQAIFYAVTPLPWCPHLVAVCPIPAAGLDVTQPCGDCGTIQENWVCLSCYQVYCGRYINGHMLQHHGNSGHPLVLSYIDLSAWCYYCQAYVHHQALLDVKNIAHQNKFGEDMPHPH

[16] = biological target: Tyrosine-protein kinase JAK2 (Homo sapiens, UniProt O60674); test: Inhibition of JAK2 (unknown origin)
Tyrosine-protein kinase JAK2, sequence (O60674 whole entry): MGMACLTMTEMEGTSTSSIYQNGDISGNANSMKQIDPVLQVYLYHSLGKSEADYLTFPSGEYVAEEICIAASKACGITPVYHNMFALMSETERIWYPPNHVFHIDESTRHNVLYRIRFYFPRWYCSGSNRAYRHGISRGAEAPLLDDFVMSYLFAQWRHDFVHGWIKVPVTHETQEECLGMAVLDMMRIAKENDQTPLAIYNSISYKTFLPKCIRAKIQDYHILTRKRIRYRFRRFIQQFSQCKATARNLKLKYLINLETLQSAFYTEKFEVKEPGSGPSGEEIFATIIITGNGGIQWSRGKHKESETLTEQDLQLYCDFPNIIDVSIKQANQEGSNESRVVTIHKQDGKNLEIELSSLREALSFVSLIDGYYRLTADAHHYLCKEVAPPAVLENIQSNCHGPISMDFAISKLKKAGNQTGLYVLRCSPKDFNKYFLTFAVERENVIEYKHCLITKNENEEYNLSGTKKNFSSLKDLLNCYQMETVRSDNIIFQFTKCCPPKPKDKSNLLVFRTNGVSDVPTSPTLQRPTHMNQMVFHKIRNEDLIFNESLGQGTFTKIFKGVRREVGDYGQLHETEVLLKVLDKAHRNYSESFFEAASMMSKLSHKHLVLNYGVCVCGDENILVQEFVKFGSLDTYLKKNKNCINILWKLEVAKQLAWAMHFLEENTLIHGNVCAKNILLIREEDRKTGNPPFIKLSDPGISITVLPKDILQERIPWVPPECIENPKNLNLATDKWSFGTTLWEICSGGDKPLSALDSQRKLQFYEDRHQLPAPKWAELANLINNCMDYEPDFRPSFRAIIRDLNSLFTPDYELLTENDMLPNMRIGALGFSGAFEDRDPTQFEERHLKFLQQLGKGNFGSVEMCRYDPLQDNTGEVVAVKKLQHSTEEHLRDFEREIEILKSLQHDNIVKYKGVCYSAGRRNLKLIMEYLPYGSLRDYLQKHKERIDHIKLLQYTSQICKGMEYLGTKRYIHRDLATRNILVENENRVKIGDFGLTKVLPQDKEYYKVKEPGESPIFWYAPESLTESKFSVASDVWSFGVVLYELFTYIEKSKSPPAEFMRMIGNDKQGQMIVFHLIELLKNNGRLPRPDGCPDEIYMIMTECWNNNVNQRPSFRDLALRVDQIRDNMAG

[17] = biological target: T1, Epidermal growth factor receptor; test: Inhibition of EGFR (unknown origin)
[18] = biological target: Tubulin; test: Inhibition of MAP-rich tubulin (unknown origin) polymerization; type: protein-complex assay, Homo sapiens
[19] = test system: MDA-MB-231; test: Cytotoxicity against human MDA-MB-231 cells assessed as inhibition of cell growth incubated for 24 hrs by MTT assay; type: functional, cell-based; conditions: MDA-MB-231, 24 h
[20] = test system: MCF7; test: Cytotoxicity against human MCF7 cells assessed as inhibition of cell growth incubated for 24 hrs by MTT assay; type: functional, cell-based; conditions: MCF7, 24 h
[21] = biological target: T2, Histone deacetylase 1; test: Inhibition of HDAC1 (unknown origin)
[22] = biological target: Janus Kinase (JAK) (Homo sapiens, UniProt P52333+P23458+O60674+P29597); test: Inhibition of JAK (unknown origin); type: protein assay
[23] = test system: U-937; test: Antiproliferative activity against human U-937 cells assessed as inhibition of cell growth incubated for 72 hrs by MTT assay; type: functional, cell-based; conditions: U-937, 72 h
[24] = test system: SK-MEL-1; test: Antiproliferative activity against human SK-MEL-1 cells assessed as inhibition of cell growth incubated for 72 hrs by MTT assay; type: functional, cell-based; conditions: SK-MEL-1, 72 h
[25] = biological target: Tubulin (Bos taurus, UniProt Q6B856+Q862L2+Q862F3); test: Inhibition of bovine brain tubulin polymerization incubated for 20 mins by spectrophotometric method; type: tissue-based
[26] = biological target: Cyclin-dependent kinase; test: Inhibition of CDK (unknown origin); type: protein assay, Homo sapiens

C=C[C@]1(C)CC[C@@H](C(=C)COC(=O)CCC(=O)CCCOc2no[n+]([O-])c2S(=O)(=O)c2ccccc2)C[C@H]1C(=C)C
IC50 [1]: 2 nM

N#CC1=C(N)Oc2ccccc2C1c1cc2ccccc2n2nnnc12 (stereo unspecified)
inhibition [2]: 60%
IC50 [3]: 278 nM
inhibition [4]: 30%

O=C(CCCCCCNc1ccc2ncnc(Nc3ccc(F)cc3)c2n1)NO
IC50 [5]: 780 nM
inhibition [6]: 54%
inhibition [7]: 70%

O=C(/C=C/c1ccc(F)cc1)c1cc(Br)cc2cc(-c3ccccc3)oc12
IC50 [8]: 90 nM
IC50 [9]: 5510 nM

CCCOCCSc1nc(-c2ccccc2Cl)nn1CCOCCC
IC50 [10]: 1300 nM
IC50 [11]: 107 nM
IC50 [12]: 867 nM

CCN1CCN(Cc2cc(Nc3ncc(C(=O)Nc4ccccc4N)s3)nc(C)n2)CC1
IC50 [13]: 21.2 nM
IC50 [14]: 150 nM

CS(=O)(=O)Nc1ccc(-c2ccnc(Nc3ccc(N4CCC(CCc5ccc(/C=C/CC(=O)NO)cc5)CC4)cc3)n2)cc1
IC50 [15]: 46 nM
IC50 [16]: 8 nM

CC(=O)O[C@H]1CC[C@]2(C)[C@H]3CC=C4[C@@H]5CC(C)(C)CC[C@]5(C(=O)OCCCC[N+](=O)[O-])CC[C@@]4(C)[C@]3(C)CC[C@H]2C1(C)CO (stereo partly specified)
IC50 [17]: 10 nM

Fc1ccc(C2=Nc3ccc(F)cc3CN2/N=C\c2ccccc2)cc1
IC50 [18]: 9250 nM
IC50 [19]: 280 nM
IC50 [12]: 75.2 nM
IC50 [20]: 350 nM

CSc1nn(-c2ccc(Br)cc2)c2nc(C)nc(Nc3ccc(OCCCC[N+](=O)[O-])cc3)c12
IC50 [17]: 3000 nM

O=[N+]([O-])OCCCOc1ccc(Nc2ncnc3c2cnn3-c2ccc(Br)cc2)cc1
IC50 [17]: 3000 nM

CC(=O)Nc1ccc(-c2ccnc(NCc3ccc(OCCCCCC(=O)NO)cc3)n2)cc1
IC50 [15]: 20 nM
IC50 [21]: 306 nM
IC50 [16]: 2.6 nM

O=C(CCCCCCn1cc(Nc2ncc(Cl)c(Nc3ccc(Cl)cc3)n2)cn1)NO
IC50 [22]: 4 nM

COc1ccc(CCNc2nc(N)c(C(=O)c3cc(OC)c(OC)c(OC)c3)s2)cc1
IC50 [23]: 5700 nM
IC50 [24]: 8000 nM
IC50 [25]: > 20000 nM
IC50 [26]: > 10000 nM
